Test results reported in patent publication US20220331318A1, “USE OF AN MDM2 INHIBITOR FOR THE TREATMENT OF MYELOFIBROSIS” (Novartis AG, priority 2019, published 2022).

What was measured:
CYP3A4 = CYP3A4 (Homo sapiens, UniProt P08684); assay: Metabolism by CYP enzymes; type: in vitro ADME; details: siremadlin
P-gp = P-gp (Homo sapiens, UniProt P08183); assay: P-gp substrate assessment in vitro; type: in vitro ADME
BCRP = target: T1, BCRP (Homo sapiens, UniProt Q9UNQ0); assay: BCRP substrate assessment in vitro; type: in vitro ADME
T1 sequence (Q9UNQ0 1-655): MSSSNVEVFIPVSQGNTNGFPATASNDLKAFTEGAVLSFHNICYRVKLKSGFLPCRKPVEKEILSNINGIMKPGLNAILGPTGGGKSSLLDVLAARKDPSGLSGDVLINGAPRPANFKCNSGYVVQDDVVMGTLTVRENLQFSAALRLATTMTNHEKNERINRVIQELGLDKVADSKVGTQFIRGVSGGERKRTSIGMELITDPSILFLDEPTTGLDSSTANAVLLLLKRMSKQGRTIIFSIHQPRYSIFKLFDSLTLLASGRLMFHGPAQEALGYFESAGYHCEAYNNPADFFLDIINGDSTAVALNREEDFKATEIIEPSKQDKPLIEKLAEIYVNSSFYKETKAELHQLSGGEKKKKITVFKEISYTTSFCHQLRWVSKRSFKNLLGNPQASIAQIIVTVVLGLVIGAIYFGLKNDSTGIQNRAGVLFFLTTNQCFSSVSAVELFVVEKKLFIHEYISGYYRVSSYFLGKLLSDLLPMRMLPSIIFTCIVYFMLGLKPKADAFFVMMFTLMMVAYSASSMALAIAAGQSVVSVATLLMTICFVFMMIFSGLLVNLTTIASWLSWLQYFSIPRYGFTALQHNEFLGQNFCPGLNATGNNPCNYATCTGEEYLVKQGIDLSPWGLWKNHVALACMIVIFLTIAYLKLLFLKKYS

CYP3A4/5 [1] = assay: CYP3A4/5 inhibition in vitro; type: in vitro ADME
CYP3A4/5 [2] = assay: CYP3A4/5 induction in vitro; type: in vitro ADME; details: net effect anticipated rather as an inhibitor than an inducer
AML subjects = assay: Phase I study HDM201X2101, single-agent siremadlin in solid tumors or hematologic malignancies (R/R AML); type: in vivo, human
Description: In this study, the selection of the siremadlin dose and regimen is based on the currently available preclinical and clinical safety, efficacy, PK and PK/PD modeling information from the phase I study HDM201X2101, a dose escalation and expansion study of single-agent siremadlin in patients with solid tumors or hematologic malignancies (R/R AML). At the time of data cut-off (15 Jan. 2018), 199 subjects have been treated applying various dosing regimens: 115 subjects with solid and 84 patients with hematological tumors. Safety and efficacy data from this trial in AML subjects was used to determine a recommended Phase 2 dose regimen of 45 mg once a day (QD) from day 1 to day 7 of a 28-day cycle (regimen 2C) which is disclosed in WO/2018/178925 (incorporated herewith by reference), At this dose regimen, Complete Response/Complete Response with incomplete blood count recovery (CR/CRi) were respectively 2/4 subjects out of 24 (25%).

[3] = Preliminary PK analysis, Phase I/II study of ruxolitinib with siremadlin in myelofibrosis patients; type: in vivo, human; details: for Exposure compared with historical single-agent data: combination of ruxolitinib and siremadlin 20 mg QD
Description: (§1) A Randomized, Open-Label, Phase I/II Open Platform Study Evaluating Safety and Efficacy of Novel Ruxolitinib Combination in Myelofibrosis Patients
(§2) The purpose of this study is to investigate the safety, pharmacokinetics and preliminary efficacy of combination treatment of ruxolitinib with siremadlin in MF subjects. The study consists of three parts:
Dose reductions/interruptions were not taken into consideration for this preliminary PK analysis. Nominal times were used.
This study was not specifically designed to investigate the potential for PK drug interactions, however comparative assessment of historical data has been done. A PK DDI between ruxolitinib and siremadlin is unlikely or predicted to be low, based on PBPK analysis.

myelofibrosis patients = assay: Safety (DLTs, SAEs), cohort 1 of Phase I/II study of siremadlin in combination with ruxolitinib in myelofibrosis patients; type: in vivo, human; details: 7 patients, cohort 1, 20 mg Siremadlin in combination with Ruxolitinib
Description: as §1, §2
Incidence and severity of dose limiting toxicity (DLTs) within the first 2 treatment cycles in Part 1 of the study
1 patient potentially not evaluable due to Siremadlin interruption within first 2 cycles of treatment. PK DDI between ruxolitinib and Siremadlin is unlikely or predicted to be low, based on PBPK analysis. As per statistical model the dose of Siremadlin can be increased to 30 mg or 40 mg D1-D5 in the next cohort.

[4] = tested on: solid and hematological tumors; details: preclinical and clinical PK/PD modeling (Guerreiro et al 2018, Meille et al 2017); cited from earlier work
[5] = tested on: broad panel of 26 kinases; details: tested at 200 nM; cited from earlier work
[6] = tested on: other major CYP enzymes or transporters; details: cited from earlier work
JAK3 = JAK3 (Homo sapiens, UniProt P52333); details: at clinically relevant concentrations; cited from earlier work
JAK3, sequence (P52333 whole entry): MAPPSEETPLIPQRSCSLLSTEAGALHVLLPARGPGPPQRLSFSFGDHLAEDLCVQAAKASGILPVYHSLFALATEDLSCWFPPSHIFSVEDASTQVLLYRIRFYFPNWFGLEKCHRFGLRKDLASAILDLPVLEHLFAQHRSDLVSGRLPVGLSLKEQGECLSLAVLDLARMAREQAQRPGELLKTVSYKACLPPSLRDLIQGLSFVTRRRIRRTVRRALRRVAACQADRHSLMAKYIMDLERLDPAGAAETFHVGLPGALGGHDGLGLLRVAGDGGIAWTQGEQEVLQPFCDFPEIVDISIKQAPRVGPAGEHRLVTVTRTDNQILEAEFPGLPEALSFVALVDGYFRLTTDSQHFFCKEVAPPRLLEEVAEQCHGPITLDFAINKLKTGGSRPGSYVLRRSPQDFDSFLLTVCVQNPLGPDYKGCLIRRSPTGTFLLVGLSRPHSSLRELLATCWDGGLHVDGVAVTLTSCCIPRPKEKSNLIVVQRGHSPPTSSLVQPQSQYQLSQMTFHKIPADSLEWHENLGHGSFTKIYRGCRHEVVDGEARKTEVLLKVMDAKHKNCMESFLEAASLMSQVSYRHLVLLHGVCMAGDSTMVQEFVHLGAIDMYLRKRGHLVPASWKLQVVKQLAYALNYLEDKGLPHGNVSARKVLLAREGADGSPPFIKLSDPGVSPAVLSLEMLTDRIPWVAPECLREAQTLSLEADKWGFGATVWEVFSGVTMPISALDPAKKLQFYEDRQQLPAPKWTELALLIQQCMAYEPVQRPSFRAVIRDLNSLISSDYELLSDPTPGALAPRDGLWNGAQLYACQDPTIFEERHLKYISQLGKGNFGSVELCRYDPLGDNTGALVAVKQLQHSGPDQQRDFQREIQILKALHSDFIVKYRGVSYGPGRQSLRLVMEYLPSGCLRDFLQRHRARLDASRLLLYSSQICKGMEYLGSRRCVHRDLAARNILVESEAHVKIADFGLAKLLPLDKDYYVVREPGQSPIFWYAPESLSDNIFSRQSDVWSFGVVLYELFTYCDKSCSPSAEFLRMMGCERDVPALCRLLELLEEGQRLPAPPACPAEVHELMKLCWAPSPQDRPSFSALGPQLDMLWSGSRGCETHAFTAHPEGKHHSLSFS

[7] = AML, 45 mg QD day 1 to day 7 of a 28-day cycle (regimen 2C)

P-gp, sequence (P08183 whole entry): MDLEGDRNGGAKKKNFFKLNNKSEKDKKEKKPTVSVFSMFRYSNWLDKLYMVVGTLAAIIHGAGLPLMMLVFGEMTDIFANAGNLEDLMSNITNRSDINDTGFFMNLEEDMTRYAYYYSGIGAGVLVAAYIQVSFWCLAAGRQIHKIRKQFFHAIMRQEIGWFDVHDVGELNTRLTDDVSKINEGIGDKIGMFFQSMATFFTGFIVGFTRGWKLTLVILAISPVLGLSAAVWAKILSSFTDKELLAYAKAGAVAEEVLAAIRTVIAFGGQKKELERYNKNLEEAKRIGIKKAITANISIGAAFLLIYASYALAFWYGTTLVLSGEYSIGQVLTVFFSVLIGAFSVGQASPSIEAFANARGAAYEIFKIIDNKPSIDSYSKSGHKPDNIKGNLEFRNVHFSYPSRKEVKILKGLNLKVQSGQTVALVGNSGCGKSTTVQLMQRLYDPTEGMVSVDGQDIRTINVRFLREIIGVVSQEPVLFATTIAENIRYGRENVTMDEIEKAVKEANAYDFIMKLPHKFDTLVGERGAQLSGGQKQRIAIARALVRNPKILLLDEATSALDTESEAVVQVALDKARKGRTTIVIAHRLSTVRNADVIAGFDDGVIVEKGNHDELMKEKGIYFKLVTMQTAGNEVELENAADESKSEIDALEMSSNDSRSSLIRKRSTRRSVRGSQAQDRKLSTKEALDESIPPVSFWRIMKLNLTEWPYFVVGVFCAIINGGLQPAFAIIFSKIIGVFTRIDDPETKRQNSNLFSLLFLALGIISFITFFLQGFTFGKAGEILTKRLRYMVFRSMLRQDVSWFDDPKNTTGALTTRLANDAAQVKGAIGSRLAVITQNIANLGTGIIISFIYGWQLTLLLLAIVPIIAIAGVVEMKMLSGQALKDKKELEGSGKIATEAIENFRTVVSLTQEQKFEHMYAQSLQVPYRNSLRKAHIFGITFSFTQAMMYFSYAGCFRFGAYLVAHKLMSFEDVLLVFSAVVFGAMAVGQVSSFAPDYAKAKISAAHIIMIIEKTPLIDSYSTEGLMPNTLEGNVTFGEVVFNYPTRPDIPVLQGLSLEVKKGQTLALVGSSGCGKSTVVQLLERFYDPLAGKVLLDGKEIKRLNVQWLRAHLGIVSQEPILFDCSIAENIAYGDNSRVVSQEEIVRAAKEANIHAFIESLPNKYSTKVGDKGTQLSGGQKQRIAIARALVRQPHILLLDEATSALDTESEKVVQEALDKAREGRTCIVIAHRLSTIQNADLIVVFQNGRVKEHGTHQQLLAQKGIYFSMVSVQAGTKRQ
CYP3A4, sequence (P08684 whole entry): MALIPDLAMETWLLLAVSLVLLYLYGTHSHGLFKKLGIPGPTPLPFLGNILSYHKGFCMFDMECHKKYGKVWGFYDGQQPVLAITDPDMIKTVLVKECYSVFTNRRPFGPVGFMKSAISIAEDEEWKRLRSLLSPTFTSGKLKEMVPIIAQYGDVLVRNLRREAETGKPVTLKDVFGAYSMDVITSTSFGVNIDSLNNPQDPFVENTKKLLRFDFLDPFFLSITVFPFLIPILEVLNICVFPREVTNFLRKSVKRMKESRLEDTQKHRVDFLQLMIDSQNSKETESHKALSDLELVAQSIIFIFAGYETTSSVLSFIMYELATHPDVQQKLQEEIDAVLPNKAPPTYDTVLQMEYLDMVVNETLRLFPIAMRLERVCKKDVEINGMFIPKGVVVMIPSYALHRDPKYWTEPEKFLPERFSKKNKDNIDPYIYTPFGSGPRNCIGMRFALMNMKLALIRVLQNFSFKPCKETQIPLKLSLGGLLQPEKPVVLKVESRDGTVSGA

Row | SMILES | metabolizing enzyme (CYP3A4) | P-gp substrate (P-gp) | BCRP substrate (BCRP) | inhibition of CYP3A4/5 (CYP3A4/5 [1]) | induction of CYP3A4/5 (CYP3A4/5 [2]) | Complete Response (CR) (AML subjects; [7]) | Complete Response with incomplete blood count recovery (CRi) (AML subjects; [7]) | CR/CRi rate (AML subjects; AML, 45 mg QD day 1 to day 7 of a 28-day cycle (regimen 2C), 24 subjects) | dose-limiting toxicity (DLT) (AML subjects; hematological tumor patients, regimen 2C) | severity of adverse events (AML subjects; hematological tumor patients, regimen 2C, cytopenias most commonly observed) | most frequently reported adverse drug reactions in clinic (AML subjects; single agent) | Exposure compared with historical single-agent data ([3]; MF patients) | DLTs (myelofibrosis patients) | on treatment SAEs (myelofibrosis patients) | anti-tumor activity on reducing application from 7 to 5 consecutive days per 28-day cycle [4] | accumulation upon repeated dosing ([3]; MF patients, ruxolitinib 10, 15 or 20 mg BID with siremadlin) | half-life ([3]; human, in vivo, oral, 20 mg) | inhibition of a broad panel of 26 kinases [5] | capacity to inhibit other major CYP enzymes or transporters [6] | inhibition of JAK3 (JAK3)
1 | COc1ncc(-c2nc3c(n2C(C)C)[C@H](c2ccc(Cl)cc2)N(c2cc(Cl)cn(C)c2=O)C3=O)c(OC)n1 [siremadlin, (S)-5-(5-Chloro-1-methyl-2-oxo-1,2-dihydro-pyridin-3-yl)-6-(4-chloro-phenyl)-2-(2,4-dimethoxy-pyrimidin-5-yl)-1-isopropyl-5,6-dihydro-1H-pyrrolo[3,4-d]imidazol-4-one] | predominantly metabolized by CYP3A4 | substrate | substrate | time-dependent inhibitor and a reversible inhibitor | inducer | 2 subjects out of 24 | 4 subjects out of 24 | 25% | tumor lysis syndrome (TLS) | mild to moderate in severity, reversible and manageable | hematological toxicities including thrombocytopenia, neutropenia and anemia | comparable to exposures observed previously | no DLTs | no on treatment SAEs | maintains equivalent anti-tumor activity | – | – | – | – | –
2 | N#CC[C@H](C1CCCC1)n1cc(-c2ncnc3[nH]ccc23)cn1 [ruxolitinib, (R)-3-(4-(7H-pyrrolo[2,3-d]pyrimidin-4-yl)-1H-pyrazol-1-yl)-3-cyclopentylpropanenitrile] | – | – | – | – | – | – | – | – | – | – | – | within the exposure range of values observed previously | – | – | – | little accumulation | 3 to 4 h | < 30% | little or no capacity to inhibit | does not inhibit
